Test results taken from patent publication US20100240754A1, “UNSATURATED FATTY AMINO ACID DERIVATIVES AND USE THEREOF IN DERMAL COSMETOLOGY” (Pierre Fabre Demo-Cosmetique, priority 2007, published 2010).
Like-named read-outs stand apart in the source and are kept apart here.

Legend:
[1] = tested on: fibroblast cell line L929; assay: In vitro assay of intracellular OASes (H2DCF-DA probe) after H2O2/iron oxidative stress; assay type: cell-based, murine; conditions: Mus musculus, L929, 3 h pretreatment, H2O2 200 μM / iron 2 mM, read-out: percentage of inhibition of intracellular OAS production (protection); for inhibition at 20 pg/mL: dose 0.02 ng/mL; for inhibition at 0.0002 µg/mL: dose 0.2 ng/mL; for inhibition at 0.002 µg/mL: dose 2 ng/mL; for inhibition at 0.02 µg/mL: dose 20 ng/mL
Text: We have set up a model for an in vitro study of oxidative stress induced by H2O2/iron, H2O2 which massively generates intracellular OASes by a chain reaction triggered by the oxidation of membrane lipids.
This technique is based on the use of a fluorescent probe, 6-carboxy-2′, 7′ dichlorodihydrofluorescein diacetate, di(acetoxymethyl ester) (H2DCF-DA), which, once it has penetrated the cell, is deacetylated by the intracellular esterases then forming H2DCF. This product is oxidized by intracellular OASes into a highly fluorescent compound: 2′,7′-dichlorofluorescein, (DCF) (Suematsu M et al, 1996, Free Radicals Practical Approach, Punchard ed. P83-99).
Cutaneous murine fibroblast cell line L929.
The tested concentrations are non-cytotoxic concentrations. Cytoxicity was evaluated by the neutral red method, after incubation of the product for 3 hours.
The reference anti-radical product is vitamin E or α-tocopherol (MW: 430.7) (SIGMA, ref.: T-1539).
The mother solution is prepared at 400 mg/mL in DMSO and stored at −20° C. The pretreatment solution is prepared extemporaneously at 400 μg/mL in a culture medium without FCS.
For evaluating unsaturated fatty amino acid derivatives, the dilutions are prepared in the culture medium extemporaneously for a range of concentrations of 0.02, 0.2, 2 and 20 ng/mL.
The cells of the fibroblast line L929 are sown in microplates with 96 wells with a flat bottom in 100 μL of DMEM supplemented with 10% of FCS, and they are then incubated overnight at 37° C. in a humid atmosphere with 5% CO2.
The dilutions of the products to be tested and of the reference molecule are conducted in culture mediums without FCS, and then deposited in 7 wells in an amount of 100 μL per well.
The cells are then incubated for 3 hours at 37° C. in a humid atmosphere with 5% CO2.
The cells are rinsed with PBS 1× in an amount of 100 μL per well. Next they are set to incubate for 30 min at 37° C. in a humid atmosphere with 5% CO2 and with 50 μL of H2DCF-DA probe at 5 μM.
After 30 min in contact with the probe alone, the cells are incubated for 30 min at 37° C. in a humid atmosphere with […] with addition of 25 μL of H2O2 at 800 μM and 25 μL of 8 mM ferrous and ferric iron solution, in order to have final concentrations of 200 μM of H2O2 and 2 mM of ferrous and ferric iron.
The cells are then rinsed with PBS 1× in an amount of 100 μL per well, and then incubated for 30 min at 37° C. in a humid atmosphere with 5% CO2 and with 100 μL of PBS 1×.
These 1 h 30 minutes of incubation at 37° C. allow the intracellular esterases to deacetylate the H2DCF probe, oxidizable by intracellular OASes into DCF; a fluorescent compound, the formation of which is proportional to the amount of intracellular OASes.
The fluorescence intensity is read with the cytofluorimeter at λexcitation=485 nm and λemission=530 nm. It reflects the amount of produced intracellular OASes.
With the below ratio, it is possible to calculate for each concentration of tested product the % of protection against production of intracellular OASes (since the fluorescence intensity or FI expresses intracellular release of OASes).
The values indicated in Table 3 are percentages of inhibition of intracellular OAS production following an exogenous oxidative stress, relatively to <> cells (100%) and to <> cells (0%).

B16-F10 line = assay: Synthesis of melanin, colorimetric assay, basal and after alpha MSH stimulation; assay type: cell-based, murine; conditions: B16-F10; for inhibition at 30 µg/mL: Mus musculus, 30 μg/mL
Protocol: 6.1) The modulating effect of unsaturated fatty amino-acid derivatives on melanogenesis was analyzed. For this, a measurement of the synthesis of melanin by a colorimetric assay is carried out on a cell line of murine melanomas: the B16-F10 line.
The effect of the products is investigated in a basal situation and after stimulating melanogenesis by a MSH for determining the depigmenting power.
The level of extracellular and intracellular melanin is then measured by spectrophotometry at a wave length of 405 nm according to the procedure (Meun, Y. J. et al.). The amount of pigment is determined by a standard range of melanin and by analysis on the Microwin software package (Berthold Biotechnologies). An assay of total proteins is conducted for samples of intracellular melanin by the BCA-Copper method at 540 nm. The standard range is produced with a standard protein, BSA (Bovine Albumin Serum).

production of IL8 = assay: Production of interleukin 8 induced in keratinocytes by PMA and calcium ionophore A23187 (ELISA); assay type: cell-based; conditions: Keratinocyte; keratinocytes stimulated with PMA + A23187; read-out: effective dose 50 (DE50), production of IL8

melting point | EC50 (production of IL8) | SMILES | inhibition at 20 pg/mL [1] | inhibition at 0.0002 µg/mL [1] | inhibition at 0.002 µg/mL [1] | inhibition at 0.02 µg/mL [1] | pigmenting effect, in words (B16-F10 line) | effect on the synthesis of melanin, in words (B16-F10 line; 10 μg/mL) | inhibition at 30 µg/mL (B16-F10 line; read-out: inhibition of the amount of extra-cellular melanin) | inhibition at 30 µg/mL (B16-F10 line; read-out: inhibition of the amount of intra-cellular melanin) | increase of the amount of intracellular melanin (B16-F10 line; 3, 10 and 30 μg/mL)
– | – | Cl.NCCC/C=C/C(=O)O [Compound No. 1, (E)-6-amino-hex-2-enoic acid] | 12% | 13% | 5% | 1% | – | – | – | – | –
– | – | NCCC/C=C(/F)C(=O)O [Compound No. 2, (E)-6-amino-2-fluoro-hex-2-enoic acid] | 14% | 19% | 14% | -13% | – | – | – | – | –
– | – | Cl.NCCCC/C=C/C(=O)O [Compound No. 4, (E)-7-amino-hept-2-enoic acid] | 13% | 12% | 8% | -14% | – | – | – | – | –
– | – | NCCCCC=C(F)C(=O)O [Compound No. 5, (Z+E)-7-amino-2-fluoro-hept-2-enoic acid] | 18% | 23% | 26% | 23% | weaker than that of molecule No. 6 | – | – | – | –
– | – | Cl.NCCCCC/C=C/C(=O)O [Compound No. 7, (E)-8-amino-oct-2-enoic acid] | 31% | 33% | 26% | 32% | – | – | – | – | –
104 °C | – | Cl.NCCCCCC/C=C/C(=O)O [Compound No. 8, (E)-9-amino-non-2-enoic acid] | 22% | 25% | 20% | 19% | – | – | – | – | –
120 °C | – | Cl.NCCCCCCC=C(F)C(=O)O [Compound No. 9, 9-amino-2-fluoro-non-2-enoic acid] | 18% | 20% | 23% | 18% | – | – | – | – | –
148.5 °C | – | Cl.NCCCCCCCCCCCC=C(F)C(=O)O [Compound No. 10, 14-amino-2-fluoro-tetradec-2-enoic acid] | 20% | 25% | 18% | 15% | – | – | – | – | –
153 °C | 11 µg/mL | Cl.NCCCCCCCCCCC/C=C/C(=O)O [Compound No. 11, (E)-14-amino-tetradec-2-enoic acid] | 20% | 19% | 22% | 19% | – | without any effect | 30% | ~45% | –
– | – | NCCC/C=C(\F)C(=O)O [compound 3, (Z)-6-amino-2-fluoro-hex-2-enoic acid] | 15% | 11% | 5% | 1% | – | – | – | – | –
– | – | NCCCC/C=C(\F)C(=O)O [compound 6, (Z)-7-amino-2-fluoro-hept-2-enoic acid] | 31% | 30% | 21% | 26% | – | – | – | – | about 100%
